In US20260137642A1 (CANCER PREVENTION PHARMACEUTICALS, INC., priority 2021, published 2026):

What was measured:
[1] = Phase I/II trial in new onset T1D: adverse events judged possibly or probably related to drug; type: in vivo, human; details: for Adverse events possibly or probably related to drug: Hematologic, Grade 1 Neutropenia / Adverse events possibly or probably related to drug: Abdominal Pain / Adverse events possibly or probably related to drug: Congestion / Adverse events possibly or probably related to drug: Cough / Adverse events possibly or probably related to drug: Diarrhea / Adverse events possibly or probably related to drug: Dizziness / Adverse events possibly or probably related to drug: Gastrointestinal (Total) / Adverse events possibly or probably related to drug: Hematologic, Anemia / Adverse events possibly or probably related to drug: Hot flashes associated with viral illness / Adverse events possibly or probably related to drug: Nausea / Adverse events possibly or probably related to drug: Nausea with IV placement / Adverse events possibly or probably related to drug: Neurologic, Headache / Adverse events possibly or probably related to drug: Other Viral Illness / Adverse events possibly or probably related to drug: Other infectious/immune, Pump site infection / Adverse events possibly or probably related to drug: Other, Hypoglycemia / Adverse events possibly or probably related to drug: Other, Urticaria/anaphylaxis / Adverse events possibly or probably related to drug: URI / Adverse events possibly or probably related to drug: Vomiting: daily oral; for Adverse events possibly or probably related to drug: Hematologic, Grade 1 Neutropenia: neutrophil count < lower limit of normal but above 1500/mm^3
Source text: The primary efficacy measure was changes in pro-insulin to C-peptide ratios as a marker of β cell ER stress. The secondary objectives of the study were to elucidate the relationship between primary dose and markers of endoplasmic reticulum (ER) stress, polyamine concentrations, glycemic, and immunologic outcomes in persons with new onset T1D, and to characterize the dietary polyamine intake and urinary polyamine excretion of persons with recent-onset T1D. Secondary efficacy measures included other biomarkers of β cell stress, stimulated C-peptide values, and changes in T-cell subsets. This study was double-blind, placebo-controlled, 2:1 random assigned, phase I/II clinic trial for individuals with type 1 diabetes. The blinded dose-ranging study enrolled persons with new onset T1D with documented continued residual C-peptide production. […] After a 3 month wash-out period, the durability of effect was assessed. […] Males and females 12-40 years of age with a clinical diagnosis of T1D within 2-8 months of the time of visit 2; 2. […] Positive for any one of the following diabetes-related autoantibodies (mIAA, GADA, IA-2A, or ZnT8A); 4. Treatment naïve of any immunomodulatory agent; 5. […] Presence of any psychiatric disorder that will affect ability to participate in study, including psychiatric impairment or current use of anti-psychotic medication; 3. […] Chronic illness known to affect glucose metabolism (e.g. Cushing syndrome, polycystic ovarian disorder, cystic fibrosis) or taking medications that affect glucose metabolism (e.g. steroids, metformin); 5. Inability to swallow pills; 6. Hematologic abnormalities at screening (anemia, leukopenia (particularly neutropenia), or thrombocytopenia); 7. […] Female participants of child-bearing age must not be pregnant and agree to use an effective form of birth control or be abstinent during the study period; 9. BMI >95% for age and sex. […] The enrollment cohorts were as follows: […] [table] […] Possible drug-related expected AEs included mild-moderate nausea/vomiting/abdominal pain and diarrhea, moderate headache, upper respiratory infections, a pump site infection, and mild anemia. […] Adverse events judges by masked study investigators as possibly or probably related to drug are showing in Table 3.

urinary polyamines = test: Phase I/II trial in new onset T1D: urinary polyamines (first morning urine, HPLC); type: in vivo, human; details: 3 months
Description: This study was double-blind, placebo-controlled, 2:1 random assigned, phase I/II clinic trial for individuals with type 1 diabetes. The blinded dose-ranging study enrolled persons with new onset T1D with documented continued residual C-peptide production. […] After a 3 month wash-out period, the durability of effect was assessed. [table]

β cell function = details: mouse models including the NOD mouse; cited from earlier work
T cells = details: mice; cited from earlier work

NCCCC(N)(C(=O)O)C(F)F (centres unmarked) [eflornithine, 2,5-diamino-2-(difluoromethyl) pentanoic acid]
Adverse events possibly or probably related to drug: Hematologic, Grade 1 Neutropenia ([1]; 500 mg/m^2 (n = 6)): 0
Adverse events possibly or probably related to drug: Abdominal Pain ([1]; 750 mg/m^2 (n = 7)): 2
Adverse events possibly or probably related to drug: Congestion ([1]; 750 mg/m^2 (n = 7)): 2
Adverse events possibly or probably related to drug: Cough ([1]; 750 mg/m^2 (n = 7)): 0
Adverse events possibly or probably related to drug: Diarrhea ([1]; 750 mg/m^2 (n = 7)): 0
Adverse events possibly or probably related to drug: Dizziness ([1]; 750 mg/m^2 (n = 7)): 2
Adverse events possibly or probably related to drug: Gastrointestinal (Total) ([1]; 750 mg/m^2 (n = 7)): 5
Adverse events possibly or probably related to drug: Hematologic, Anemia ([1]; 750 mg/m^2 (n = 7)): 1
Adverse events possibly or probably related to drug: Hot flashes associated with viral illness ([1]; 750 mg/m^2 (n = 7)): 0
Adverse events possibly or probably related to drug: Nausea ([1]; 750 mg/m^2 (n = 7)): 3
Adverse events possibly or probably related to drug: Nausea with IV placement ([1]; 750 mg/m^2 (n = 7)): 1
Adverse events possibly or probably related to drug: Neurologic, Headache ([1]; 750 mg/m^2 (n = 7)): 0
Adverse events possibly or probably related to drug: Other Viral Illness ([1]; 750 mg/m^2 (n = 7)): 1
Adverse events possibly or probably related to drug: Other infectious/immune, Pump site infection ([1]; 750 mg/m^2 (n = 7)): 0
Adverse events possibly or probably related to drug: Other, Hypoglycemia ([1]; 750 mg/m^2 (n = 7)): 0
Adverse events possibly or probably related to drug: Other, Urticaria/anaphylaxis ([1]; 750 mg/m^2 (n = 7)): 1
Adverse events possibly or probably related to drug: URI ([1]; 750 mg/m^2 (n = 7)): 2
Adverse events possibly or probably related to drug: Vomiting ([1]; 750 mg/m^2 (n = 7)): 0
Adverse events possibly or probably related to drug: Hematologic, Grade 1 Neutropenia ([1]; 750 mg/m^2 (n = 7)): 0
Adverse events possibly or probably related to drug: Abdominal Pain ([1]; 1000 mg/m^2 (n = 6)): 1
Adverse events possibly or probably related to drug: Congestion ([1]; 1000 mg/m^2 (n = 6)): 1
Adverse events possibly or probably related to drug: Cough ([1]; 1000 mg/m^2 (n = 6)): 1
Adverse events possibly or probably related to drug: Diarrhea ([1]; 1000 mg/m^2 (n = 6)): 0
Adverse events possibly or probably related to drug: Dizziness ([1]; 1000 mg/m^2 (n = 6)): 0
Adverse events possibly or probably related to drug: Gastrointestinal (Total) ([1]; 1000 mg/m^2 (n = 6)): 2
Adverse events possibly or probably related to drug: Hematologic, Anemia ([1]; 1000 mg/m^2 (n = 6)): 2
Adverse events possibly or probably related to drug: Hot flashes associated with viral illness ([1]; 1000 mg/m^2 (n = 6)): 1
Adverse events possibly or probably related to drug: Nausea ([1]; 1000 mg/m^2 (n = 6)): 1
Adverse events possibly or probably related to drug: Nausea with IV placement ([1]; 1000 mg/m^2 (n = 6)): 0
Adverse events possibly or probably related to drug: Neurologic, Headache ([1]; 1000 mg/m^2 (n = 6)): 2
Adverse events possibly or probably related to drug: Other Viral Illness ([1]; 1000 mg/m^2 (n = 6)): 0
Adverse events possibly or probably related to drug: Other infectious/immune, Pump site infection ([1]; 1000 mg/m^2 (n = 6)): 1
Adverse events possibly or probably related to drug: Other, Hypoglycemia ([1]; 1000 mg/m^2 (n = 6)): 0
Adverse events possibly or probably related to drug: Other, Urticaria/anaphylaxis ([1]; 1000 mg/m^2 (n = 6)): 0
Adverse events possibly or probably related to drug: URI ([1]; 1000 mg/m^2 (n = 6)): 2
Adverse events possibly or probably related to drug: Vomiting ([1]; 1000 mg/m^2 (n = 6)): 0
Adverse events possibly or probably related to drug: Hematologic, Grade 1 Neutropenia ([1]; 1000 mg/m^2 (n = 6)): 0
Tolerability ([1]; 3-month course of oral eflornithine, children and adults with recent-onset T1D): well tolerated with a favorable AE profile
Severity of adverse events noted ([1]; daily oral doses of 125, 250, 500, 750, and 1000 mg/m^2, drug or placebo): Mild and moderate AEs
Unexpected drug-related effects ([1]; individuals on active drug, daily oral doses of 125, 250, 500, 750, and 1000 mg/m^2): No unexpected effects judged related to drug
Change in urinary polyamines with increasing drug dose across groups (urinary polyamines; 125-1000 mg/m^2): Decreases in urinary polyamines
3-month urinary Decarboxylated AdoMet, Least Square Means (urinary polyamines; Drug Dose 125): 133.0 µmol/g
3-month urinary Putrescine, Least Square Means (urinary polyamines; Drug Dose 125): 127.9 µmol/g
3-month urinary Decarboxylated AdoMet, Least Square Means (urinary polyamines; Drug Dose 250): 87.7 µmol/g
3-month urinary Putrescine, Least Square Means (urinary polyamines; Drug Dose 250): 78.0 µmol/g
3-month urinary Decarboxylated AdoMet, Least Square Means (urinary polyamines; Drug Dose 500): 114.3 µmol/g
3-month urinary Putrescine, Least Square Means (urinary polyamines; Drug Dose 500): 41.8 µmol/g
3-month urinary Decarboxylated AdoMet, Least Square Means (urinary polyamines; Drug Dose 750): 116.0 µmol/g
3-month urinary Putrescine, Least Square Means (urinary polyamines; Drug Dose 750): 56.6 µmol/g
3-month urinary Decarboxylated AdoMet, Least Square Means (urinary polyamines; Drug Dose 1000): 165.7 µmol/g
3-month urinary Putrescine, Least Square Means (urinary polyamines; Drug Dose 1000): 35.7 µmol/g
β cell function and diabetes onset (β cell function): preserves β cell function and delays diabetes onset
Effect on T cells (T cells): deplete T cells
